Data: patent US6413979B1, “Substituted 5-(2,2-difluoro-1,3-benzodioxol-5-yl) cyclopentenopyridine derivative” (Banyu Pharmaceutical Co., Ltd., priority 1998, dated 2002)
Like-named read-outs stand apart in the source and are kept apart here.

How the values were obtained:
[1] = 10 mg/kg as sodium salt in water, SD male rats, bioassay
Description: Concentration in Rat Plasma after Oral Administration
SD male rats (8 weeks old, n=3) were subjected to cannulation of the carotid artery beforehand and after the recovery from the surgery, subjected to a fast of one night for the test. The sodium salt of the diastereomer A prepared in Example 14, which is a representative compound of the present invention, was dissolved in water, and the resulting aqueous solution (concentration: 2.0 mg/ml) was forcibly administrated into the stomach in an amount of 10 mg/kg by gavage. Before the administration and 1, 4 and 8 hours after the administration, 120 μl of the blood was withdrawn from the cannulae in the carotid arteries with the aid of heparin and the plasma was separated by cold centrifugation. 25 μl of portions of the plasma were deproteinized by adding 100 μl of ethanol and centrifuged (10,000×g, 10 minutes, 0° C.) under cooling. 80 μl portions of the supernatants was used for a bioassay of the concentration in plasma.

[2] = system: endothelin-induced contraction of iliac artery specimen
Description: Effect on Endothelin-induced Contraction of Iliac Artery Specimen from Rabbit
The iliac artery was excised from a rabbit and made into a spiral specimen of 1 mm wide and 10 mm long. The specimen was stripped of the endothelial cells and suspended in a 5 ml Magnus tube filled with Krebs-Henseleit solution saturated with a gas mixture of O2 (95%) and CO2 (5%), and the change in tension was isometrically measured and recorded.
The effects of a compound of the present invention on the dose-response curve obtained by cumulative addition of endothelin-1 to the Magnus tube were investigated. A compound of the present invention was added to the Magnus tube at a final concentration of 10 μM 20 minutes before the addition of endothelin-1.

[3] = biological target: T1, ETB receptor (Homo sapiens, UniProt P24530); assay: Endothelin binding inhibition test on human endothelin receptors ([125I]endothelin-1), ETB; conditions: human cell membranes, 20 pM [125I]endothelin-1, 4 hours incubation
T1 construct: host or cells: human Girardi heart cells (membranes)
T1 sequence (P24530 27-442): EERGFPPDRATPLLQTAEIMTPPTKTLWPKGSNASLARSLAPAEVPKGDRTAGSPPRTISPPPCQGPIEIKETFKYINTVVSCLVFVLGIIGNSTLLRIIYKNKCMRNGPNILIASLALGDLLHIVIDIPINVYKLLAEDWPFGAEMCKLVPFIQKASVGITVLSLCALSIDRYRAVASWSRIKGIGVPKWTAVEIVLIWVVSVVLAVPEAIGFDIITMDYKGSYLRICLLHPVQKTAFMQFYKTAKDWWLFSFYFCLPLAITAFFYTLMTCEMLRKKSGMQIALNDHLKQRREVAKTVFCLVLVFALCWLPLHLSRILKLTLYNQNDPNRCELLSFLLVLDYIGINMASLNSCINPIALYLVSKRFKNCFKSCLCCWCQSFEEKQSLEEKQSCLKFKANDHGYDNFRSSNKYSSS
Description: (§1) Endothelin Binding Inhibition Test on Human Endothelin Recepters
The human neuroblastoma SK-N-MC cells or the human Giradi heart cells, purchased from Dainippon Seiyaku (Japan), were cultured in minimal essential medium supplemented with fetal calf serum. The cells were collected and homogenized in 10 mM MOPS buffer (pH 7.4) containing 154 mM NaCl, 10 mM KCl, 0.8 mM CaCl2 and 20% sucrose at 4° C. using a polytron homogenizer. The homogenate was then centrifuged at 10,000×g for 15 minutes. The supernatant was centrifuged at 100,000×g for 1 hour at 4° C. Then the pellet was washed with 5 mM HEPES/Tris buffer (pH 7.4). […] After the filtration, the filters were washed with buffer B, and the radioactivity on the filters was measured in a γ counter. Nonspecific binding was determined in the presence of 200 nM endothelin-1. […]
(§2) where (A): for nonspecific binding including 200 nM of unlabeled endothelin-1 as the final concentration, (B): for total binding including labeled endothelin-1 without a test compound, and (C): for binding including labeled endothelin-1 with a concentration of a test compound, show the radioactivity.

[4] = biological target: T2, ETA receptor (Homo sapiens, UniProt P25101); assay: Endothelin binding inhibition test on human endothelin receptors ([125I]endothelin-1), ETA
T2 construct: host or cells: human neuroblastoma SK-N-MC cells (membranes)
T2 sequence (P25101 21-427): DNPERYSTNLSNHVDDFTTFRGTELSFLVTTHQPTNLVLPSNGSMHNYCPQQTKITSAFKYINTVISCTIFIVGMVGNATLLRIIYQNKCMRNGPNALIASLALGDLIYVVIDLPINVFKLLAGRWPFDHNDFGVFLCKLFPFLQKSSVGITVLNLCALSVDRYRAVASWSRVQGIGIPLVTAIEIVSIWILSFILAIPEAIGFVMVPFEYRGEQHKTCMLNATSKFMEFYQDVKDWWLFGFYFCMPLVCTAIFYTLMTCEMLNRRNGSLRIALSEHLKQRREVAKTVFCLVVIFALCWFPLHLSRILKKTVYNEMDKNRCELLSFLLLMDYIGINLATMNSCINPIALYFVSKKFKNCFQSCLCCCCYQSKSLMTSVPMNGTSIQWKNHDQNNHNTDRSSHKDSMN
Description: as §1
The human neuroblastoma SK-N-MC cells or the human Giradi heart cells, purchased from Dainippon Seiyaku (Japan), were cultured in minimal essential medium supplemented with fetal calf serum. The cells were collected and homogenized in 10 mM MOPS buffer (pH 7.4) containing 154 mM NaCl, 10 mM KCl, 0.8 mM CaCl2 and 20% sucrose at 4° C. using a polytron homogenizer. The homogenate was then centrifuged at 10,000×g for 15 minutes. The supernatant was centrifuged at 100,000×g for 1 hour at 4° C. Then the pellet was washed with 5 mM HEPES/Tris buffer (pH 7.4). The resulting membranes (50 μl) were mixed with [^125I]endothelin-1 (20 pM) and 4 μl of DMSO solution of a test compound in 67 mM Tris/HCl buffer (pH 7.4) containing 0.13 mM phenylmethanesulfonyl fluoride, 1.3 μM pepstatin, 2.7 μM leupeptin, 1.3 mM 1,10-phenanthroline, 1.3 mM EDTA, 13 μM CaCl2, 13 μM MgCl2 and 0.13% bovine serum albumin (BSA) in a total volume of 0.35 ml. After 4 hours incubation, cold 5 mM HEPES/Tris buffer (pH 7.4) containing 0.3% BSA (Buffer B) was added to the mixture, and free and bound [^125I]endothelin-1 were separated by filtration using Whatman GF/C glass fiber filters. After the filtration, the filters were washed with buffer B, and the radioactivity on the filters was measured in a γ counter. Nonspecific binding was determined in the presence of 200 nM endothelin-1.
The concentration of a test compound of the present invention causing 50% inhibition of [^125I]endothelin-1 binding (IC50 value) was derived by the following [^125I]endothelin-1 binding inhibition D (%): [formula]
as §2

SMILES	concentration in rat plasma ([1]; 1 hour after oral administration) [ng/mL]	concentration in rat plasma ([1]; 4 hours after oral administration) [ng/mL]	concentration in rat plasma ([1]; 8 hours after oral administration) [ng/mL]	change in the maximum response to endothelin-1 ([2]; concentrations from 0.1 μM to 10 μM)	effect on the dose-response curve for endothelin-1 ([2]; concentrations from 0.1 μM to 10 μM, added 20 minutes before endothelin-1)	effect of the compound by itself on the artery specimen ([2]; without endothelin-1)	IC50 [3] [nM]	binding-inhibitory activity to ETA receptor compared with ETB receptor (in words) [4]	IC50 ([4]; human cell membranes, 20 pM [125I]endothelin-1, 4 hours incubation) [nM]	ETB/ETA ([4]; ratio of IC50 values)
COc1ccc([C@@H]2c3nc(NC(C)C)ccc3[C@H](c3ccc4c(c3)OC(F)(F)O4)[C@H]2C(=O)O)c(CC(C)CO)c1 (single isomer, unassigned; diastereomer a) [diastereomer A prepared in Example 14]	452	124	203	no change in the maximum response	appreciably shifted the dose-response curve for endothelin-1 to the right	no effect on the artery specimen by itself				
COc1ccc([C@@H]2c3nc(NC(C)C)ccc3[C@H](c3ccc4c(c3)OC(F)(F)O4)[C@H]2C(=O)O)c(CC(C)C(=O)O)c1 (single isomer, unassigned; diastereomer a) [Diastereomer A of example 18]							78	far higher binding-inhibitory activity to ETA receptor than to ETB receptor	0.056	ETB/ETA = 1400
